In patent US20020155381A1, “Optical data carrier comprising a light-absorbent compound having a plurality of chromophoric centres in the information layer” (priority 2001, published 2002):

Columns and labels:
Type in all cases: physicochemical
[1] = Solubility in coating solvent
[2] = Spin coating on fused silica support: film quality and film thickness from transmission and reflection spectra; details: for kind of film obtained by spin coating: 1-2 parts of solid per 100 in TFP or THF; for film thickness: spin coated from 1 part of solid to 99 parts of TFP, before vacuum
Procedure: A 1/1 mixture (by mass) of substances of the following formulae was dissolved in tetrafluoropropanol (TFP) in a mass ratio of 2 parts of solid to 98 parts of TFP. […] Evaluation of the transmission and reflection spectra indicated a film thickness of 165 nm. [drawing 62]
(§1) Determination of the complex index of refraction and the thickness of the layer of the organic substances by means of transmission and reflection spectra:
(§2) The transmission and reflection spectra of the layer systems film/fused silica or SiN/film/fused silica or SiN/fused silica were determined with perpendicular incidence of a parallel beam of light in a wavelength range of from 200 nm to 1 700 nm. […] The reflected light was detected at an angle of 172° relative to the direction of incidence. Two different thicknesses of the organic film were in each case produced by spin coating. The thickness of the layer was adjusted by means of the solution concentration. The thicknesses were in the range from 50 nm to 500 nm. To evaluate the transmission and reflection spectra, the known Fresnel formulae were employed and the interferences caused by multiple reflection in the layer system were taken into account. A simultaneous least squares fit of the measured transmission and reflection spectra to the calculated spectra of the two layer systems of differing thickness enabled the layer thicknesses and the complex index of refraction of the organic substance to be determined at each wavelength. For this purpose, the index of refraction of the fused silica support has to be known. The index of refraction curve of the fused silica substrate in this spectral range was determined independently on an uncoated substrate.

[3] = Vacuum treatment of the spin-coated film (simulated sputtering conditions), layer thickness afterwards; details: vacuum ~10^-6 mbar, 1 hour, room temperature
Procedure: This film was subjected to a vacuum (pressure ˜10^−6 mbar) for 1 hour at room temperature to simulate the conditions when applying metallic or dielectric layers by sputtering during the production of optical data carriers.
as §1, §2

[4] = SiN vapour deposition on the organic film, apparent thickness of the organic film
Procedure: A layer of SiN was subsequently applied by vapour deposition on top of the layer which had been pretreated in the above-described manner. Vapour deposition was carried out by electric heating of Si3N4 in a molybdenum boat under reduced pressure. The pressure during the vapour deposition process was ˜10^−4 mbar, and the deposition rate was ˜4-5 Angström per second. To determine the complex index of refraction of the deposited SiN layer, control experiments were carried out on plain fused silica plates. The thickness of the SiN layer was determined by means of a profiler (Tencor Alpha Step 500 Surface Profiler). In turn, evaluation of the transmission and reflection spectra of the layer system taking into account the complex index of refraction and the thickness of the SiN layer enabled the apparent thickness of the organic film to be determined. It was 94 nm. […]
The transmission and reflection spectra of the layer systems film/fused silica or SiN/film/fused silica or SiN/fused silica were determined with perpendicular incidence of a parallel beam of light in a wavelength range of from 200 nm to 1 700 nm. […] The reflected light was detected at an angle of 172° relative to the direction of incidence. […] The index of refraction curve of the fused silica substrate in this spectral range was determined independently on an uncoated substrate.

## CCN(CC)c1ccc(/C=C/c2cc[n+](Cc3ccccc3C[n+]3ccc(/C=C/c4ccc(N(CC)CC)cc4)cc3)cc2)cc1 [Example 12]
[1]; in TFP (tetrafluoropropanol)
  solubility: 2%

## CCCOC(=O)/C(C#N)=C/c1ccc(C)o1 [Example IV, reference compound]
[2]
  kind of film obtained by spin coating: crystalline film

## Cc1ccc(/C=C(\C#N)C(=O)OCC(C)(COC(=O)/C(C#N)=C/c2ccc(C)o2)COC(=O)/C(C#N)=C/c2ccc(C)o2)o1 [Example V]
[2]
  kind of film obtained by spin coating: transparent film
  film thickness: 153 nm
[3]
  retention of the substance after vacuum treatment: virtually fully retained
  total thickness d of the layer after vacuum treatment: 143 nm
[4]; SiN deposited at ~10^-4 mbar on vacuum-pretreated layer
  change of the layer by the SiN vapour deposition process: the layer has not been changed
[4]; SiN deposited at ~10^-4 mbar, ~4-5 Angström per second, on vacuum-pretreated layer
  apparent thickness of the organic film after SiN vapour deposition: 160 nm

## CC1(C)CC(=O)C(=Cc2ccc(N3CCN(c4ccc(C=C5C(=O)CC(C)(C)CC5=O)o4)CC3)o2)C(=O)C1 [Example 10]
[1]; in TFP (tetrafluoropropanol)
  solubility: 2%

## N#C/C(=C\c1cccn1CCCn1cccc1/C=C(\C#N)c1ccccc1)c1ccccc1 [Example 9]
[1]; in diacetone alcohol
  solubility: 2%

## CN(CCOC(=O)CCC(=O)OCCN(C)c1ccc(C(C#N)=C(C#N)C#N)cc1)c1ccc(C(C#N)=C(C#N)C#N)cc1 [Example 5]
[1]; in TFP (tetrafluoropropanol)
  solubility: 1%

## CN(CCC#N)c1ccc(/C=C/C2=[N+](CCCC[N+]3=C(/C=C/c4ccc(N(C)CCC#N)cc4)C(C)(C)c4ccccc43)c3ccccc3C2(C)C)cc1 [Example 13]
[1]; in TFP (tetrafluoropropanol)
  solubility: 2%

## COc1cc2c(cc1OC)C(C)(C)C/C2=C(/C#N)C(=O)OCCOC(=O)/C(C#N)=C1\CC(C)(C)c2cc(OC)c(OC)cc21 [Example II]
[2]
  kind of film obtained by spin coating: transparent film
  film thickness: 85 nm
[3]
  retention of the substance after vacuum treatment: fully retained
  total thickness d of the layer after vacuum treatment: 85 nm
